Data on 1 molecule can be found in patent US7749546B2, “Composition for effectively suppressing the growth of prostate cancer cell, suppressing the prostatic hyperplasia and its preparation method” (Golden Biotechnology Corp., priority 2004, dated 2010).

In the assay the test system is human prostate cancer cell lines—LNCaP cells. The assay can be described thus: In vitro mode adjunctive treatment activity assay with Taxol (MTT cell survival). The class given is cell-based. The conditions noted are these: 2 nM Taxol alone. The procedure: Utilize in vitro filter mode for human prostate cancer cell lines—LNCaP cells. Where human prostate cancer cell lines—LNCaP cells is being cultured in the culture medium which is supplemented by fetalbovine serum for 24 hours, and process cells by Taxol for 72 hours, and then change the culture medium so as to culture it in a new culture medium by adding assay sample for 72 hours, afterwards evaluate the cell survival rate by MIT colorimetric analysis method.
※ The assay analysis of the compositions in accordance with the present invention in effect for suppressing the growth of human prostate cancer cells, wherein it is necessary to compute the cell survival rate for cells in each well of 96-well microplate, afterwards evaluate the cancer cells survival rate by MIT colorimetric analysis method.
※ MTT colorimetric analysis method: MTT is a kind of tertrazolium salt, with a full name of 3-[4,5-Dimenthylthialzol-2-yl]2, 5-diphenyltetrazoliumbromide, which is the yellow dye, capable to be absorbed by live cells and also be reduced to blue color formazan by succinate-tetrazoliumreductase in mitochondrion, which is commonly used for filtering the affection for matters to the growth and proliferation of cells.

In the case of `CC(=O)O[C@H]1C(=O)[C@@]2(C)[C@H]([C@H](OC(=O)c3ccccc3)[C@]3(O)C[C@H](OC(=O)[C@H](O)[C@@H](NC(=O)c4ccccc4)c4ccccc4)C(C)=C1C3(C)C)[C@]1(OC(C)=O)CO[C@@H]1C[C@@H]2O` [Taxol], the “cell survival rate for human prostate cancer cells” value is listed as 56.4%.
